Consider 15 molecules from patent publication US20160257697A1, “THIOPHENE-SUBSTITUTED TETRACYCLIC COMPOUNDS AND METHODS OFUSE THEREOF FOR THE TREATMENT OF VIRAL DISEASES” (priority 2013, published 2016).

Holding throughout (assay): microbe, parasite or virus in culture
Holding throughout (assay type): cell-based, Hepatitis C virus (HCV)

One assay relates to HCV replicon 1AY93H. The settings on record: Replicon Assay A. The method in brief: (§1)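 HCV replicon RNA levels were quantified by TaqMan RT-PCR after 3-day compound exposure (0.5% DMSO, 5% FBS). Cyclophilin RNA, co-amplified in the same reaction, served as endogenous control; Ct values were converted to RNA amounts using linear regression standard curves.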
On the technique in general: Replicon systems follow genome replication, usually without infectious particles.

The subject of the next assay is HCV replicon 1A. The settings on record: Replicon Assay A. In outline: as §1
For another assay, the system named is HCV replicon 2B. The settings on record: Replicon Assay A. The method in brief: as §1
Another assay relates to HCV replicon 1AQ30D. The conditions noted are these: Replicon Assay B.
The next assay concerns HCV replicon 1B. The settings on record: Replicon Assay B.
[1] abbreviates: read-out: 1A Y93H IC50, replicon 1AY93H.
Setting [2] is: read-out: 1A Q30D IC50, replicon 1AQ30D.
[3] abbreviates: read-out: 1A Y93H IC50, HCV replicon 1A Y93H.
[4] abbreviates: read-out: 2B IC50, HCV replicon 2B.
[5] abbreviates: Hepatitis C virus, read-out: 1A Q30D IC50, HCV replicon 1A Q30D.
[6] abbreviates: Hepatitis C virus, HCV replicon 1B.
Setting [7] is: Hepatitis C virus, read-out: 1A Y93H IC50 (nM), replicon 1AY93H.
Where [8] appears, read: Hepatitis C virus, read-out: 2B IC50 (nM), replicon 2B.
The mark [9] stands for this setting: Hepatitis C virus, read-out: 1A Q30D IC50 (nM), replicon 1AQ30D.

Structures are written as SMILES. Like-named read-outs stand apart in the source and are kept apart here.

In the case of `COC(=O)NC(C(=O)N1CCC[C@H]1c1ncc(-c2ccc3c(c2)cc2n3C(c3ccc(C4CC4)s3)Oc3cc(-c4cnc([C@@H]5CCCN5C(=O)[C@@H](NC(=O)OC)C5CCOCC5)[nH]4)cc(F)c3-2)[nH]1)C(C)(C)F` (single isomer, unassigned) [Compound 173], the IC50 with HCV replicon 1AY93H (setting [1]) turned out to be 0.098 nM; in the assay on HCV replicon 1A (replicon 1A), 1.7 pM; with HCV replicon 2B (read-out: 2B IC50, replicon 2B) it was 0.35 nM; with HCV replicon 1AQ30D (setting [2]), 0.28 nM; with HCV replicon 1B (replicon 1B), 2.1 pM.

Consider `COC(=O)N[C@H](C(=O)N1CCC[C@H]1c1nc(-c2cc(F)c3c(c2)OC(c2ccc(C4CC4)s2)n2c-3cc3cc(-c4c[nH]c([C@@H]5C[C@H]6C[C@H]6N5C(=O)[C@@H](NC(=O)OC)C(C)C)n4)ccc32)c[nH]1)C(C)C` (single isomer, unassigned) [Compound 721], for which the IC50 with HCV replicon 1AY93H (setting [3]) was determined as 0.0045 nM; in the assay on HCV replicon 1A (HCV replicon 1A) it was 1.5 pM; in the assay on HCV replicon 2B (setting [4]), 0.05 nM; in the assay on HCV replicon 1AQ30D (setting [5]) it was 0.17 nM; in the assay with HCV replicon 1B (setting [6]), 1.5 pM.

Turning to `COC(=O)NC(C(=O)N1[C@@H]2C[C@@H]2C[C@H]1c1ncc(-c2ccc3c(c2)cc2n3C(c3ccc(C4CC4)s3)Oc3cc(-c4cnc([C@@H]5CCCN5C(=O)[C@@H](NC(=O)OC)C(C)C)[nH]4)cc(F)c3-2)[nH]1)C(C)(C)F` (stereo partly drawn) [Compound 93], the IC50 was 0.007 nM with HCV replicon 1AY93H (setting [7]); 3 pM in the assay with HCV replicon 1A (Hepatitis C virus, replicon 1A); 0.054 nM in the assay on HCV replicon 2B (setting [8]); 0.053 nM in the assay with HCV replicon 1AQ30D (setting [9]); 2.5 pM in the assay with HCV replicon 1B (Hepatitis C virus, replicon 1B).

Turning to `COC(=O)N[C@H](C(=O)N1CCC[C@H]1c1ncc(-c2cc(C)c3c(c2)OC(c2ccc(C4CC4)s2)n2c-3cc3cc(-c4cnc([C@@H]5C[C@H]6C[C@H]6N5C(=O)[C@@H](NC(=O)OC)C(C)C)[nH]4)ccc32)[nH]1)C(C)C` (single isomer, unassigned) [Compound 754], the IC50 in the assay on HCV replicon 1AY93H (setting [3]) was found to be 0.042 nM; with HCV replicon 1A (Hepatitis C virus, HCV replicon 1A), 2.4 pM; with HCV replicon 2B (setting [4]) it was 0.039 nM; with HCV replicon 1AQ30D (read-out: 1A Q30D IC50, HCV replicon 1A Q30D), 0.433 nM; in the assay on HCV replicon 1B (setting [6]), 2.6 pM.

On to `COC(=O)N[C@H](C(=O)N1CCC[C@H]1c1ncc(-c2cc(F)c3c(c2)OC(c2ccc(C4CC4)s2)n2c-3cc3cc(-c4cnc([C@@H]5CCCN5C(=O)[C@@H](NC(=O)OC)C5CCOCC5)[nH]4)ccc32)[nH]1)C1CCOCC1` (single isomer, unassigned) [Compound 279], for which the IC50 in the assay on HCV replicon 1AY93H (setting [1]) was determined as 0.21 nM; in the assay on HCV replicon 1A (Hepatitis C virus, replicon 1A) it was 2.3 pM; with HCV replicon 2B (read-out: 2B IC50, replicon 2B), 0.017 nM; in the assay on HCV replicon 1AQ30D (setting [2]), 0.92 nM; in the assay on HCV replicon 1B (Hepatitis C virus, replicon 1B), 2.9 pM.

As to `COC(=O)N[C@H](C(=O)N1CCC[C@H]1c1ncc(-c2cc(F)c3c(c2)OC(c2ccc(C#CC4CC4)s2)n2c-3cc3cc(-c4cnc([C@@H]5CCCN5C(=O)[C@@H](NC(=O)OC)C(C)C)[nH]4)ccc32)[nH]1)C(C)C` (single isomer, unassigned) [Compound 86], the IC50 stood at 0.003 nM in the assay with HCV replicon 1AY93H (setting [1]); 1.6 pM in the assay on HCV replicon 1A (replicon 1A); 0.033 nM with HCV replicon 2B (read-out: 2B IC50, replicon 2B); 0.11 nM in the assay on HCV replicon 1AQ30D (setting [9]); 1.6 pM in the assay on HCV replicon 1B (Hepatitis C virus, replicon 1B).

For `COC(=O)N[C@H](C(=O)N1CCC[C@H]1c1ncc(-c2cc(F)c3c(c2)OC(c2cc4ccccc4s2)n2c-3cc3cc(-c4cnc([C@@H]5C[C@H]6C[C@H]6N5C(=O)[C@@H](NC(=O)OC)C(C)C)[nH]4)ccc32)[nH]1)C(C)C` (single isomer, unassigned) [Compound 615], the IC50 in the assay on HCV replicon 1AY93H (setting [3]) is 0.045 nM; in the assay with HCV replicon 1A (HCV replicon 1A), 2.3 pM; in the assay on HCV replicon 2B (setting [4]) it was 1.08 nM; in the assay with HCV replicon 1AQ30D (setting [5]), 0.844 nM; in the assay on HCV replicon 1B (setting [6]), 1.9 pM.

As to `CCc1ccc(C2Oc3cc(-c4cnc([C@@H]5CCCN5C(=O)[C@@H](NC(=O)OC)C(C)C)[nH]4)cc(F)c3-c3cc4cc(-c5cnc([C@@H]6CCCN6C(=O)[C@@H](NC(=O)OC)C(C)C)[nH]5)ccc4n32)s1` (stereo partly drawn) [Compound 4], the IC50 stood at 0.01 nM with HCV replicon 1AY93H (setting [7]); 2.2 pM in the assay on HCV replicon 1A (Hepatitis C virus, replicon 1A); 0.055 nM with HCV replicon 2B (setting [8]); 0.347 nM in the assay on HCV replicon 1AQ30D (setting [9]); 2 pM in the assay with HCV replicon 1B (Hepatitis C virus, replicon 1B).

In the case of `COC(=O)NC(C(=O)N1CCC[C@H]1c1ncc(-c2cc(F)c3c(c2)OC(c2ccc(C4CC4)s2)n2c-3cc3cc(-c4cnc([C@@H]5CCCN5C(=O)[C@@H](NC(=O)OC)C(C)C)[nH]4)ccc32)[nH]1)C1CCOC(C)(C)C1` (single isomer, unassigned) [Compound 216], the IC50 in the assay on HCV replicon 1AY93H (setting [1]) stood at 0.18 nM; in the assay on HCV replicon 1A (replicon 1A) it was 1.7 pM; in the assay with HCV replicon 2B (read-out: 2B IC50, replicon 2B) it was 0.31 nM; in the assay on HCV replicon 1AQ30D (setting [2]), 1.03 nM; in the assay on HCV replicon 1B (replicon 1B) it was 3.3 pM.

As to `CCc1ccc(C2Oc3cc(-c4cnc([C@@H]5CCCN5C(=O)[C@@H](NC(=O)OC)C(C)C)[nH]4)cc(F)c3-c3cc4cc(-c5cnc([C@@H]6C[C@@H](F)CN6C(=O)C(NC(=O)OC)C6CCOC(C)(C)C6)[nH]5)ccc4n32)s1` (single isomer, unassigned) [Compound 259], the IC50 in the assay with HCV replicon 1AY93H (setting [1]) was found to be 0.002 nM; in the assay with HCV replicon 1A (replicon 1A) it was 3.1 pM; in the assay with HCV replicon 2B (read-out: 2B IC50, replicon 2B), 0.32 nM; with HCV replicon 1AQ30D (setting [2]), 0.31 nM; in the assay on HCV replicon 1B (replicon 1B), 3.3 pM.

In the case of `COC(=O)NC(C(=O)N1CCC[C@H]1c1ncc(-c2ccc3c(c2)cc2n3C(c3ccc(CC(F)(F)F)s3)Oc3cc(-c4cnc([C@@H]5CCCN5C(=O)[C@@H](NC(=O)OC)C(C)C)[nH]4)cc(F)c3-2)[nH]1)C1C[C@@H](C)O[C@@H](C)C1` (single isomer, unassigned) [Compound 382], the IC50 in the assay on HCV replicon 1AY93H (replicon 1AY93H, read-out: 1A Y93H IC50) came out at 0.0034 nM; in the assay on HCV replicon 1A (replicon 1A), 1.7 pM; in the assay on HCV replicon 2B (replicon 2B, read-out: 2B IC50), 0.008 nM; with HCV replicon 1AQ30D (replicon 1AQ30D, read-out: 1A Q30D IC50) it was 0.0229 nM; with HCV replicon 1B (replicon 1B), 2.5 pM.

As for `COCc1ccc(C2Oc3cc(-c4cnc([C@@H]5CCCN5C(=O)[C@@H](NC(=O)OC)C(C)C)[nH]4)cc(F)c3-c3cc4cc(-c5c[nH]c([C@@H]6CCCN6C(=O)[C@@H](NC(=O)OC)C(C)C)n5)ccc4n32)s1` (single isomer, unassigned) [Compound 513], the IC50 in the assay on HCV replicon 1AY93H (setting [3]) was 0.0385 nM; with HCV replicon 1A (HCV replicon 1A) it was 3.93 pM; in the assay with HCV replicon 2B (setting [4]), 0.409 nM; in the assay with HCV replicon 1AQ30D (setting [5]), 0.986 nM; in the assay on HCV replicon 1B (setting [6]), 4.25 pM.

As to `CCc1ccc(C2Oc3cc(-c4cnc([C@@H]5CCCN5C(=O)[C@@H](NC(=O)OC)C(C)C)[nH]4)cc(F)c3-c3cc4cc(-c5cnc([C@@H]6CCCN6C(=O)[C@@H](NC(=O)OC)C6CCOCC6)[nH]5)ccc4n32)s1` (single isomer, unassigned) [Compound 337], the IC50 is 0.0021 nM in the assay with HCV replicon 1AY93H (setting [1]); 1.6 pM in the assay with HCV replicon 1A (replicon 1A); 0.0039 nM with HCV replicon 2B (read-out: 2B IC50, replicon 2B); 0.0266 nM with HCV replicon 1AQ30D (setting [2]); 1.6 pM in the assay with HCV replicon 1B (replicon 1B).

For `COC(=O)N[C@H](C(=O)N1CCC[C@H]1c1ncc(-c2cc(F)c3c(c2)OC(c2ccc(C4(O)CC4)s2)n2c-3cc3cc(-c4cnc([C@@H]5CCCN5C(=O)[C@@H](NC(=O)OC)C(C)C)[nH]4)ccc32)[nH]1)C(C)C` (single isomer, unassigned) [Compound 60], the half-inhibitory concentration (IC50) in the assay with HCV replicon 1AY93H (setting [7]) turned out to be 0.014 nM; with HCV replicon 1A (Hepatitis C virus, replicon 1A) it was 1.5 pM; in the assay on HCV replicon 2B (setting [8]), 0.023 nM; with HCV replicon 1AQ30D (setting [9]), 0.35 nM; in the assay on HCV replicon 1B (Hepatitis C virus, replicon 1B) it was 1.3 pM.

As to `COC(=O)N[C@H](C(=O)N1CCC[C@H]1c1ncc(-c2cc(F)c3c(c2)OC(c2ccc(CC(C)C)s2)n2c-3cc3cc(-c4cnc([C@@H]5CCCN5C(=O)[C@@H](NC(=O)OC)C(C)C)[nH]4)ccc32)[nH]1)C(C)C` (single isomer, unassigned) [Compound 520], the IC50 in the assay on HCV replicon 1AY93H (setting [3]) was 0.0828 nM; in the assay with HCV replicon 1A (HCV replicon 1A), 9.47 pM; with HCV replicon 2B (setting [4]), 0.593 nM; in the assay with HCV replicon 1AQ30D (setting [5]), 1.91 nM; with HCV replicon 1B (setting [6]), 9.24 pM.

Usually IC50 stands for the concentration needed to halve the response being measured.
